According to patent US20220324835A1 (Nurix Therapeutics, Inc., priority 2018, published 2022):

Tests used:
T-cell [1] = experiment: IL-2 secretion from T-cells stimulated with anti-CD3 antibody alone (Biological Example 2); type: cell-based; conditions: primary human total T-cells, read-out: IL-2 secretion, Anti-CD3 stimulation, fold change over baseline; for fold induction at 1 µM: 1 μM compound; for fold induction at 8 µM: 8 μM compound
T-cell [2] = experiment: CD25 cell surface staining on T-cells stimulated with anti-CD3 antibody alone (Biological Example 2); type: cell-based; conditions: primary human total T-cells, baseline = anti-CD3/anti-CD28 stimulated cells without inhibitor, read-out: CD25 staining, Anti-CD3 stimulation, fold change over baseline; for fold induction at 1 µM: 1 μM compound; for fold induction at 8 µM: 8 μM compound
T-cell [3] = experiment: CD25 cell surface staining on T-cells co-stimulated with anti-CD3 and anti-CD28 antibody (Biological Example 2); type: cell-based, human; conditions: Homo sapiens, T-cell, primary human total T-cells, baseline = anti-CD3/anti-CD28 stimulated cells without inhibitor, read-out: CD25 staining, Anti-CD3/Anti-CD28 stimulation, fold change over baseline; for fold induction at 0.3 µM: 0.3 μM compound; for fold induction at 1 µM: 1 μM compound; for fold induction at 4 µM: 4 μM compound
Procedure, shortened: (§1)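 Values are fold-change over baseline: readings (IL-2 release, CD25 staining) from inhibitor-treated T-cells divided against untreated cells […]. No detailed procedure stated.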

T-cell [4] = experiment: IL-2 secretion from T-cells co-stimulated with anti-CD3 and anti-CD28 antibody (Biological Example 2); type: cell-based, human; conditions: Homo sapiens, T-cell, primary human total T-cells, baseline = anti-CD3/anti-CD28 stimulated cells without inhibitor, read-out: IL-2 secretion, Anti-CD3/Anti-CD28 stimulation, fold change over baseline; for fold induction at 0.3 µM: 0.3 μM compound; for fold induction at 1 µM: 1 μM compound; for fold induction at 4 µM: 4 μM compound
Procedure, shortened: as §1

Cbl-b [5] = target: T1, Cbl-b (Homo sapiens, UniProt Q13191); experiment: Cbl-b inhibition assay (Cbl-b activity assay, FRET, Biological Example 1; 100 mM NaCl, 60 nM Src kinase); type: biochemical; conditions: upper bound stated in text lists; read-out: IC50 values in the Cbl-b inhibition assay of Biological Example 1
T1 sequence (Q13191 36-427): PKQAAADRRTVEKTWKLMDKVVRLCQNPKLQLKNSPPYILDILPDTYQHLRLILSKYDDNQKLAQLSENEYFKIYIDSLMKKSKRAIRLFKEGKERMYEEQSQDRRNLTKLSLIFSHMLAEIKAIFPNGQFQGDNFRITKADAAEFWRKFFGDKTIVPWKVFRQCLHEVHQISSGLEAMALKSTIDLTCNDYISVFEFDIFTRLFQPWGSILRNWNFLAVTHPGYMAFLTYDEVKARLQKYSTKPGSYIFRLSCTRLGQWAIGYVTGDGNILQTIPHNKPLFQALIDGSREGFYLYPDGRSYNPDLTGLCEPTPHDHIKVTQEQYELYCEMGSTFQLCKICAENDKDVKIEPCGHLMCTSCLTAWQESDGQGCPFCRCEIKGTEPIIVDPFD
Procedure, shortened: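 Inhibition is read as loss of FRET signal. The signal arises when Src-phosphorylated, N-terminal biotinylated Avi-Cbl-b (captured by streptavidin-terbium) binds UbcH5B carrying covalently linked Bodipy-Fluorescein-tagged ubiquitin.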

Cbl-b [6] = target: T1, Cbl-b; experiment: Cbl-b activity assay (Cbl-b inhibition assay), TR-FRET of Cbl-b interaction with UbcH5B-Ub; type: biochemical; conditions: assay buffer with 100 mM NaCl, 60 nM Src kinase; read-out: Cbl-b activity IC50
Procedure, shortened: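 Compound-treated Cbl-b was incubated 1.5 h with Src kinase (60 nM final; 30 nM for asterisked values, which also used 50 mM instead of 100 mM NaCl), 1 mM ATP and 5 mM MgCl2. Binding to fluorescent Ub-loaded UbcH5B (C85K mutant) was then read by TR-FRET after 1 h more.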

Row | SMILES | fold induction at 1 µM (T-cell [1]) | fold induction at 1 µM (T-cell [2]) | fold induction at 0.3 µM (T-cell [3]) | fold induction at 1 µM (T-cell [3]) | fold induction at 0.3 µM (T-cell [4]) | fold induction at 1 µM (T-cell [4]) | IC50 (Cbl-b [5]) [nM] | IC50 (Cbl-b [6]) [nM] | fold induction at 8 µM (T-cell [1]) | fold induction at 8 µM (T-cell [2]) | fold induction at 4 µM (T-cell [3]) | fold induction at 4 µM (T-cell [4])
1 | Cc1conc1CC1(c2cccc(NC(=O)c3cc(CN4CC[C@H](O)C4)nc(C4CC4)n3)c2)COC1 [Compound 507, 2-cyclopropyl-6-{[(3S)-3-hydroxypyrrolidin-1-yl]methyl}-N-(3-{3-[(4-methyl-1,2-oxazol-3-yl)methyl]oxetan-3-yl}phenyl)pyrimidine-4-carboxamide] | > 0.201 | > 1 | 1.31 to 1.5 | 1.31 to 1.5 | > 7.5 | > 7.5 | ≤ 100 | < 100 |  |  |  | 
2 | CN1CCN(c2cc3c(c(C(F)(F)F)c2)CN(c2cccc(C4(Cc5nncn5C)COC4)c2)C3=O)C(=O)C1 [Compound 391, 6-(4-Methyl-2-oxopiperazin-1-yl)-2-(3-(3-((4-methyl-4H-1,2,4-triazol-3-yl)methyl)oxetan-3-yl)phenyl)-4-(trifluoromethyl)isoindolin-1-one] | 0.051 to 0.1 | 0.801 to 1 | 1.01 to 1.3 | 1.01 to 1.3 | 1.01 to 2.5 | 1.01 to 2.5 | ≤ 100 | < 100 |  |  |  | 
3 | Cn1cnnc1CC1(c2cccc(N3Cc4c(cc(C(F)(F)CO)cc4C(F)(F)F)C3=O)c2)COC1 [Example 547, 6-(1,1-difluoro-2-hydroxyethyl)-2-(3-(3-((4-methyl-4H-1,2,4-triazol-3-yl)methyl)oxetan-3-yl)phenyl)-4-(trifluoromethyl)isoindolin-1-one] | 0.101 to 0.15 | 0.801 to 1 | 1.01 to 1.3 | 1.01 to 1.3 | 1.01 to 2.5 | 1.01 to 2.5 | ≤ 100 | < 100 |  |  |  | 
4 | CN(C)Cc1cc(C(=O)Nc2cccc(C3(Cc4nncn4C)COC3)c2)nc(C2CC2)n1 [Compound 503, 2-cyclopropyl-6-[(dimethylamino)methyl]-N-(3-{3-[(4-methyl-1,2,4-triazol-3-yl)methyl]oxetan-3-yl}phenyl)pyrimidine-4-carboxamide] | 0.101 to 0.15 | > 1 | 1.31 to 1.5 | 1.31 to 1.5 | 2.51 to 5 | > 7.5 | ≤ 100 | < 100 |  |  |  | 
5 | C[C@H](c1cc2c(c(C(F)(F)F)c1)CN(c1cccc(C3([C@H](F)c4nncn4C)COC3)c1)C2=O)N1CCC2(CC2)C1 (single isomer, unassigned) [Compound 516] | > 0.201 | > 1 | > 1.76 | > 1.76 | > 7.5 | > 7.5 | ≤ 100 | < 100 |  |  |  | 
6 | Cn1cnnc1CC1(c2cccc(N3Cc4c(cc(CO)cc4C(F)(F)F)C3=O)c2)COC1 [Compound 437, 6-(hydroxymethyl)-2-(3-(3-((4-methyl-4H-1,2,4-triazol-3-yl)methyl)oxetan-3-yl)phenyl)-4-(trifluoromethyl)isoindolin-1-one] | 0.101 to 0.15 | 0.601 to 0.8 | 1.01 to 1.3 | 1.31 to 1.5 | 2.51 to 5 | 5 to 7.5 | ≤ 100 | < 100 | 0.051 to 0.1 | 0.601 to 0.8 | 1.51 to 1.75 | > 7.5
7 | Cc1cc(C(=O)Nc2cccc(C(C)(C)Cc3nncn3C)c2)nc(C2CC2)n1 [Compound 511, 2-cyclopropyl-6-methyl-N-{3-[2-methyl-1-(4-methyl-1,2,4-triazol-3-yl)propan-2-yl]phenyl}pyrimidine-4-carboxamide] | 0.101 to 0.15 | 0.801 to 1 | 1.31 to 1.5 | 1.31 to 1.5 | 5 to 7.5 | > 7.5 | ≤ 100 | < 100 |  |  |  | 
8 | Cn1cnnc1C(F)(F)[C@](C)(F)c1cccc(N2Cc3c(cc(CN4CC(C(F)F)C4)cc3C(F)(F)F)C2=O)c1 [Compound 453, (R)-6-((3-(difluoromethyl)azetidin-1-yl)methyl)-2-(3-(1,1,2-trifluoro-1-(4-methyl-4H-1,2,4-triazol-3-yl)propan-2-yl)phenyl)-4-(trifluoromethyl)isoindolin-1-one] | > 0.201 | > 1 | 1.31 to 1.5 | 1.31 to 1.5 | 5 to 7.5 | > 7.5 | ≤ 100 | < 100 | 0.151 to 0.2 | > 1 | 1.31 to 1.5 | > 7.5
9 | Cn1cnnc1CC1(c2cccc(N3Cc4c(cc(CN5CCS(=O)(=O)CC5)cc4C(F)(F)F)C3=O)c2)COC1 [Compound 434, 4-{[2-(3-{3-[(4-methyl-4H-1,2,4-triazol-3-yl)methyl]oxetan-3-yl}phenyl)-3-oxo-7-(trifluoromethyl)-2,3-dihydro-1H-isoindol-5-yl]methyl}-1λ^6-thiomorpholine-1,1-dione] | 0.101 to 0.15 | > 1 | 1.01 to 1.3 | 1.01 to 1.3 | 2.51 to 5 | 2.51 to 5 | ≤ 100 | < 100 |  |  |  | 
10 | Cn1cnnc1CC1(c2cccc(N3Cc4c(cc(CN5CCCC5=O)cc4C(F)(F)F)C3=O)c2)COC1 [Compound 426, 2-(3-(3-((4-methyl-4H-1,2,4-triazol-3-yl)methyl)oxetan-3-yl)phenyl)-6-((2-oxopyrrolidin-1-yl)methyl)-4-(trifluoromethyl)isoindolin-1-one] | 0.151 to 0.2 | > 1 | 1.01 to 1.3 | 1.01 to 1.3 | 1.01 to 2.5 | 1.01 to 2.5 | ≤ 100 | < 100 | > 0.201 | > 1 | 1.01 to 1.3 | 2.51 to 5
11 | CC(O)c1cc2c(c(C(F)(F)F)c1)CN(c1cccc(C3(Cc4nncn4C)COC3)c1)C2=O (stereo not drawn) [Compound 540, 6-(l-hydroxyethyl)-2-(3-(3-((4-methyl-4H-1,2,4-triazol-3-yl)methyl)oxetan-3-yl)phenyl)-4-(trifluoromethyl)isoindolin-1-one] | 0.151 to 0.2 | > 1 | 1.01 to 1.3 | 1.01 to 1.3 | 1.01 to 2.5 | 2.51 to 5 | ≤ 100 | < 100 |  |  |  | 
12 | Cc1conc1CC1(c2cccc(NC(=O)c3cc(CN4CCC5(CC5)C4)nc(C4CC4)n3)c2)COC1 [Compound 508, 6-{5-azaspiro[2.4]heptan-5-ylmethyl}-2-cyclopropyl-N-(3-{3-[(4-methyl-1,2-oxazol-3-yl)methyl]oxetan-3-yl}phenyl)pyrimidine-4-carboxamide] | > 0.201 | > 1 | 1.31 to 1.5 | 1.31 to 1.5 | > 7.5 | > 7.5 | ≤ 100 | < 100 |  |  |  | 
13 | Cn1cnnc1C(F)(F)[C@](C)(F)c1cccc(N2Cc3c(cc(CN4C[C@@H](F)[C@@H](F)C4)cc3C(F)(F)F)C2=O)c1 [Compound 461, 6-(((3R,7S)-3,4-difluoropyrrolidin-1-yl)methyl)-2-(3-((R)-1,1,2-trifluoro-1-(4-methyl-4H-1,2,4-triazol-3-yl)propan-2-yl)phenyl)-4-(trifluoromethyl)isoindolin-1-one] | 0.151 to 0.2 | > 1 | 1.31 to 1.5 | 1.31 to 1.5 | 2.51 to 5 | 5 to 7.5 | ≤ 100 | < 100 | > 0.201 | > 1 | 1.51 to 1.75 | > 7.5
